Experimental data published in US20130210881A1, “ANTIMICROBIAL COMPOSITION” (Agency for Science ,Technology and Research, priority 2010, published 2013).

What was measured:
Type in all cases: cell-based
[1] = test system: Bacillus subtilis (ATCC 23857, gram-positive); test: Antimicrobial analysis, MIC, B. subtilis; conditions: ATCC23857, 37° C., 24 hours, concentration necessary to inhibit complete cell growth
Method: (§1) All bacteria and yeast originated from a −80° C. frozen stock. Bacteria were grown overnight at 37° C. in Tryptic Soy broth (TSB) and yeast was grown overnight at 22° C. in Yeast Mold (YM) broth. Sub-samples of these cultures were grown for three hours further and diluted to an OD600 of 0.1. The bacteria solutions (about 2˜5×10^8 cells/mL) were then added to the 96-well plate and were incubated at 37° C. for 24 hours. All experiments were run in triplicate and the reported minimum inhibitory concentration (MIC) is the concentration necessary to inhibit complete cell growth.

[2] = test system: Escherichia coli (ATCC 25922, gram-negative); test: Antimicrobial analysis, MIC, E. coli; conditions: ATCC25922, 37° C., 24 hours, concentration necessary to inhibit complete cell growth
Method: as §1

[3] = test system: Candida albicans (ATCC 10231, yeast); test: Antimicrobial analysis, MIC, C. albicans; conditions: ATCC10231, concentration necessary to inhibit complete cell growth
Method: as §1

| SMILES | MIC [1] [µg/mL] | MIC [2] [µg/mL] | MIC [3] [µg/mL] |
| --- | --- | --- | --- |
| C(=C/CCn1cc[n+](Cc2ccc(Cn3cc[n+](CC/C=C\CCn4cc[n+](Cc5ccccc5)c4)c3)cc2)c1)/CCn1cc[n+](Cc2ccccc2)c1 [Sample 3f] | > 250 | > 250 | > 250 |
| c1ccc(C[n+]2ccn(Cc3ccc(Cn4cc[n+](Cc5ccc(Cn6cc[n+](Cc7ccccc7)c6)cc5)c4)cc3)c2)cc1 [Sample 3c] | > 250 | > 250 | > 250 |
| c1ccc(C[n+]2ccn(Cc3ccccc3Cn3cc[n+](Cc4ccccc4)c3)c2)cc1 [Sample 3b] | > 250 | > 250 | > 250 |
| c1ccc(C[n+]2ccn(Cc3ccc(Cn4cc[n+](Cc5ccccc5)c4)cc3)c2)cc1 [Sample 3a] | > 250 | > 250 | > 250 |
| C(=C/CCn1cc[n+](Cc2ccccc2)c1)/CCn1cc[n+](CC/C=C\CCn2cc[n+](Cc3ccccc3)c2)c1 [Sample 3d] | > 250 | > 250 | > 250 |
